In publication PMC6994260 (Nature chemistry, 2019):

Key:
[1] = target: T1, signal peptidase IB (SpsB) (Staphylococcus aureus, UniProt Q5HHB9); test: FRET-peptide cleavage by endogenous SpsB in S. aureus membranes; assay type: biochemical; conditions: activator; 50 uM compound, 0.2 mg/mL total membrane protein
T1 sequence (Q5HHB9 1-191): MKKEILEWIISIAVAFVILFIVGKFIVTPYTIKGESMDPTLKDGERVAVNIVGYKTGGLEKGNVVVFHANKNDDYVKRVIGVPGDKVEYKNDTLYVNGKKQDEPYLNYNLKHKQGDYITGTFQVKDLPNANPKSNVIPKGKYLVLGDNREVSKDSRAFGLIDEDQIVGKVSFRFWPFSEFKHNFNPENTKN

[2] = target: T2, demethylmenaquinone methyltransferase (MenG) (Staphylococcus aureus, UniProt P67062); test: MenG methylation assay in lysate; assay type: biochemical; conditions: inhibitor; SAM and DMK-2 as substrates, 80 min
T2 sequence (P67062 1-241): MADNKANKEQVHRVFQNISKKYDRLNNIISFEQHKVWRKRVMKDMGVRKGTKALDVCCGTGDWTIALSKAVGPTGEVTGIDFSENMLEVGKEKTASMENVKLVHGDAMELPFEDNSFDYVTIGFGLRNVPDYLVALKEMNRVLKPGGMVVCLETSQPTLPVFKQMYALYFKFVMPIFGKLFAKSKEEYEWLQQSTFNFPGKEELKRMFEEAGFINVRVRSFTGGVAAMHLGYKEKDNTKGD

[3] = target: T2, demethylmenaquinone methyltransferase (MenG); conditions: labelled compound; DMK-2 as acceptor, 80 min
[4] = target: T2, demethylmenaquinone methyltransferase (MenG); test: LC-MS of menaquinone-2 formed in lysate; assay type: biochemical; conditions: S-adenosyl-L-methionine as methyl donor, 80 min

Row | Structure (SMILES) | SpsB activity (normalized) at 50 μM [1] | % MenG activity of DMSO control [2] | further results
1 | CNC(=O)c1cc(Oc2ccc(NC(=O)Nc3ccc(Cl)c(C(F)(F)F)c3)cc2)ccn1 [SFN, sorafenib] | 1.64 ± 0.12 fold of DMSO control | SFN caused a weaker inhibition in these assays | 
2 | C[S+](CC[C@H](N)C(=O)O)C[C@H]1O[C@@H](n2cnc3c(N)ncnc32)[C@H](O)[C@@H]1O (stereo partly drawn) [SAM, S-adenosyl-L-methionine] |  |  | [3H]methyl transfer to DMK-2, liquid scintillation counting [3]: radiolabelled methyl group of cofactor S-adenosyl-L-methionine
3 | O=C(Nc1ccc(Cl)c(C(F)(F)F)c1)Nc1cccc2c1OC(F)(F)O2 [1-164] | 1.42 ± 0.08 fold of DMSO control |  | 
4 | O=C(Nc1ccc2c(c1)OCO2)Nc1ccc(Cl)c(C(F)(F)F)c1 [1-159] | 1.40 ± 0.01 fold of DMSO control |  | 
5 | O=C(Nc1ccc2c(c1)OC(F)(F)O2)Nc1ccc(Cl)c(C(F)(F)F)c1 [PK150] | 2.54 ± 0.39 fold of DMSO control | Menaquinone-2 synthesis was enhanced in MenG-overexpressing cells and again significantly inhibited by PK150 | 
6 | CC(C)=CCC/C(C)=C/CC1=CC(=O)c2ccccc2C1=O [DMK-2, demethylmenaquinone-2] |  |  | LC-MS of menaquinone-2 formed in lysate [4]: methylation of non-naturally occurring demethylmenaquinone-2 by lysates of MenG-overexpressing and wild type S. aureus
